# pIC50: −log10 of the molar value.
# Tested on: Aβ40 in Lenti-APPsw infected primary cortical neurons
# Assay: Aβ40 ELISA in Lenti-APPsw infected primary cortical neurons
# Assay type: cell-based, mouse
# Settings: 10 μM, 24 hours
# Method: FIG. 15A-D. LDN-0057228 reduces Aβ40 and sAPPβ in primary neurons. DIV-14 primary cortical neurons from wild-type mice were incubated for 24 hours with primary culture media containing lentivirus harboring APPsw. After infection, neurons were incubated for 48 hours with 1:1 fresh to conditioned media to allow for APP expression. Neurons were then treated with LDN-0057228 at 20 μM for 24 hours in triplicate. A) Media was collected for Aβ40 ELISA. Raw Aβ40 values were normalized to APP to control for variations in lentiviral infection efficiency. B) Cell lysates were probed with 6E10 antibody to visualize the transduced full-length APP. C) sAPPβ from neuron culture media was immunoprecipitated with sβsw antibody and probed with LN27. D) Quantification of sAPPβ, normalized to APP. Data in A) and […]) represent mean+s.d. of 3 wells. Bands from B) and C) were quantified using ImageJ software.
# FIG. 16A-B. CNS-2 and LDN-0057228 reduce Aβ40 in primary neurons. DIV-14 primary cortical neurons from wild-type mice were incubated for 24 hours with primary culture media containing lentivirus harboring APPsw. After infection, neurons were incubated for 48 hours with 1:1 fresh to conditioned media to allow for APP expression. Neurons were then treated for 24 hours with the indicated compound and concentration. A) Media was collected for Aβ40 ELISA. Raw Aβ40 values were normalized to APP to control for variations in lentiviral infection efficiency. B) Cell lysates were probed with 6E10 antibody to visualize the transduced full-length APP.
# Lenti-APPsw infected primary cortical neurons were selected for the initial round of physiological experiments due to the relatively large batches of wild-type primary cortical neurons that were routinely harvested in the lab, the ease of lentiviral packaging. Primary cortical neurons were harvested from wild-type P0 pups using established protocols.
# The Lenti-APPsw vector was co-transfected into HEK293 T cells with ViraPower packaging mix (Invitrogen) to generate the lentivirus. Lentiviral-mediated transduction of APPsw in primary neurons was performed by adding neuron primary culture media containing the lentiviral particles to wild-type DIV-14 primary neurons (FIG. 14). After 24 hours, neurons were incubated with media for 72 hours prior to collecting for Aβ40 measurement. Two batches of virus (LV-1 and LV-2) were tested, showing that there is batch-to-batch variation in the viral titer.
# Using this experimental paradigm, LDN-0057228 was tested at 20 μM concentration to confirm the sAPPβ- and Aβ-lowering activity of the compound (FIG. 15). The protocol was modified slightly to allow for 24-hour compound treatment. […]
row,Compound,reduction in Aβ40 [%]
1,CS(=O)(=O)c1nnnn1-c1ccccc1Cl [LDN-0069630],15

# Same assay, conditions: 15 μM, 24 hours
row,Compound,reduction in Aβ40 [%]
1,CS(=O)(=O)c1nnnn1-c1ccccc1Cl [LDN-0069630],40

# Tested on: Aβ40 in SY5Y-BACEGFP-SEAPAPPwt cells
# Assay: Aβ40 ELISA (BioSource) in SY5Y-BACEGFP-SEAPAPPwt cells
# Assay type: cell-based
# Settings: 4 concentrations (30, 10, 3, 0.3 μM), 6 hours
# Method: FIG. 11. 5 LDDN compounds reduce Aβ40 in SYSY-BACEGFP-SEAPAPPwt cells. sAPPβ and 24-hour cell viability was performed as described in Chapter 4.1. Aβ40 ELISA was performed using the Aβ40 ELISA kit (BioSource) according to the manufacturer's protocol. Cell culture media was collected after 6 hours of treatment with 4 concentrations (30, 10, 3, 0.3 μM) of compound and diluted 3:10 prior to loading onto the Aβ ELISA plate. The data points for sAPPβ and Aβ were roughly superimposed. Data points represent mean±s.d. of 3 determinations.
# (§1) FIG. 13. […] Compounds were tested in SY5Y-BACEGFP-SEAPAPPwt cells using the cell-based BACE1 assay. Select compounds were also investigated for Aβ-lowering effect using a commercial Aβ ELISA kit (BioSource). All compounds were tested at 8 concentrations (30, 10, 3, 1, 0.3, 0.1, 0.03, and 0.01 μM), and data points were analyzed with Origin software and fitted using a logistic model for IC50 determination.
# In other non-limiting embodiments, the effective amount of at least one compound of Formulas I-VII, and/or a compound depicted in FIG. 19, may be correlated with the compound's ability to reduce the level of Aβ40 in an in vitro assay that measures the level of Aβ40 produced in a cell line, for example, an SY5Y-BACEGFP-SEAPAPPwt cell line. In one non-limiting example, the level of Aβ40 expressed by the cell line may be measured through the use of an Aβ40 Elisa kit (Bio Source). In one embodiment, the assay comprises incubating the Aβ40 expressing cells with a compound of Formulas I-VII, and/or a compound depicted in FIG. 19, followed by assaying the concentration of Aβ40 in the cell media. In such an assay, a greater reduction of Aβ40 concentration in the cell media following incubation with a compound compared to a control cell line not contacted with the compound is correlative with the compound's therapeutic efficacy.
# The 15 LDDN compounds were tested in SY5Y-BACEGFP-SEAPAPPwt cells for their ability to reduce Aβ40 using a commercial Aβ40 ELISA kit (BioSource). SY5Y-BACEGFP-SEAPAPPwt cells were grown to 100% confluence and incubated with 4 concentrations of each compound (30, 10, 3, 0.3 μM). Cell culture media was collected after 6 hours of compound incubation and diluted 3:10 in sample diluent supplied in the Aβ40 ELISA kit. Aβ ELISA was performed according to the manufacturer's protocol. […] LDN-0057228 and LDN-0069630 are small molecules with ample chemical space for modification, and are thus considered good candidates for medicinal chemistry.
# (§2) 27 structural analogs of LDN-0057228 were synthesized and tested using the cell-based BACE1 assay in SY5Y-BACEGFP-SEAPAPPwt cells (FIG. 13). 4 analogs, in addition to the parent compound, were also assessed for Aβ40 lowering activity using a commercial Aβ kit (BioSource). Because LDN-0057228 resembles CNS monoamine transporter inhibitors, this analog series was given the designation “CNS.” LDN-0057228 gave an unexpectedly low potency (IC50˜20 μM for both sAPPβ and Aβ40 reduction) compared to the ˜7 μM potency obtained using the same compound in FIG. 8.
row,Compound,dose-dependent decrease in Aβ40
1,CS(=O)(=O)c1nnnn1-c1ccccc1Cl [LDN-0069630],caused a dose-dependent decrease in Aβ40

# Same assay, conditions: SAR study, 8 concentrations (30-0.01 μM), SY5Y-BACEGFP-SEAPAPPwt cells
row,Compound,pIC50
1,"Fc1ccc(C(OCCN2CCN(CCCc3ccccc3)CC2)c2ccc(F)cc2)cc1 [GBR 12909, reference compound]",4.84
2,CNC[C@@H]1CCCN1CCOC(c1ccc(F)cc1)c1ccc(F)cc1 [CNS-3],4.94

# Tested on: sAPPβ (BACE1 cleavage of SEAP-APPwt) in SY5Y-BACEGFP-SEAPAPPwt cells
# Assay: cell-based BACE1 assay (sAPPβ modified ELISA)
# Settings: 10 μM, positive control, 384-well LDDN screen, on average
# Method: FIG. 1. An sAPPβ assay utilized to identify inhibitors of BACE1. The assay utilizes SY5Y cells stably overexpressing BACE-GFP and SEAP-APPwt. Cells are incubated with a candidate compound for 6 hours prior to harvesting media. BACE1-mediated cleavage of APP results in the release of sAPPβ into the media. α-secretase, a competing enzyme that is non-amyloidogenic, also cleaves APP to release […]. Using an sAPPβ-specific antibody (sβwt), SEAP-sAPPβ is specifically captured in a modified ELISA assay. Detection is achieved by addition of the fluorescent alkaline phosphatase substrate, 4-methylumbelliferyl phosphate (4-MUP).
# as §1
# As described in the Examples below, and depicted in FIG. 1, an sAPPβ ELISA assay may comprise cells, for example, SY5Y cells, transfected with a BACE1 reporter construct, such as a GFP-tagged BACE1 (BACE-GFP), and a wild type APP reporter construct, such as a secreted alkaline phosphatase (SEAP)-tagged wild type APP (SEAP-APPwt). BACE1 cleavage of the reporter-tagged APP (e.g. SEAP-APPwt) may result in secretion into the media of SEAP-tagged sAPPβ, which may be collected and specifically captured using an sAPPβ cleavage site-specific antibody (e.g. stβwt). Following washing, a substrate may be used, for example, the fluorescent alkaline phosphatase substrate 4-methylumbelliferyl phosphate (4-MUP), to detect the captured SEAP-sAPPβ.
# A cell-based modified ELISA assay for measuring sAPPβ, the secreted ectodomain of β-amyloid precursor protein (APP) following β-secretase (BACE1) cleavage, was used to identify a class of compounds that interfered with the first step of sAPPβ generation. This assay has been described in International Application PCT/US2007/015938 (Published as International Publication No. WO 08/008463), which is herein incorporated in its entirety for all purposes.
# The SY5Y-BACEGFP-SEAPAPPwt cell based assay was developed to discover novel small molecule modulators of BACE1 activity. SY5Y cells were stably transfected with GFP-tagged BACE1 (BACE-GFP) and secreted alkaline phosphatase (SEAP)-tagged wildtype APP (SEAP-APPwt). BACE1 cleavage of SEAP-APPwt results in secretion into the media of SEAP-tagged sAPPβ, which is collected and specifically captured using an sAPP0 cleavage site-specific antibody (sβwt). After washing, the fluorescent alkaline phosphatase substrate 4-methylumbelliferyl phosphate (4-MUP) is used to detect the captured SEAP-sAPPβ (FIG. 1).
# The 15 LDDN compounds selected based on their 3-point dose-response profile were tested at 12 concentrations (ranging from 0.1 nM to 30 μM) in the cell-based BACE1 assay. The assay was conducted in 96-well format to maximize the Z′ factor. Compounds were characterized in duplicate cell plates, each containing 12 doses of compound in triplicate. Cell viability was measured at 6 and 24 hours using Promega's Cell Titer-Glo kit according to the manufacturer's protocol. The dose-response curves for sAPPβ reduction were plotted using Origin software and fitted using a logistic model for IC50 determination.
# as §2
row,Compound,suppression of sAPPβ generation [%]
1,BACE inhibitor IV [reference compound],> 95

# Same assay, conditions: SAR study, 8 concentrations (30-0.01 μM), SY5Y-BACEGFP-SEAPAPPwt cells
row,Compound,IC50(sAPPβ)
1,NC(=O)[C@@H]1CCCN1CCOC(c1ccc(F)cc1)c1ccc(F)cc1 [CNS-16],inactive
2,Fc1ccc(C(OCCN2CC[C@H]2CNCCCc2ccccc2)c2ccc(F)cc2)cc1 [CNS-20],inactive
3,Fc1ccc(C(OCCNCCNCCCc2ccccc2)c2ccc(F)cc2)cc1 [CNS-22],inactive
4,O=C(CCc1ccccc1)NC[C@@H]1CCN1CCOC(c1ccc(F)cc1)c1ccc(F)cc1 [CNS-19],inactive
5,NC(=O)[C@@H]1CCN1CCOC(c1ccc(F)cc1)c1ccc(F)cc1 [CNS-17],inactive
6,O=C(CCc1ccccc1)NCCNCCOC(c1ccc(F)cc1)c1ccc(F)cc1 [CNS-21],inactive
7,NC(=O)[C@H]1CCCN1CCOC(c1ccc(F)cc1)c1ccc(F)cc1 [CNS-11],inactive
8,NC(=O)[C@@H]1CCCCN1CCOC(c1ccc(F)cc1)c1ccc(F)cc1 [CNS-15],inactive
9,O=C(CCc1ccccc1)NCCN(CCOC(c1ccc(F)cc1)c1ccc(F)cc1)CCOC(c1ccc(F)cc1)c1ccc(F)cc1 [CNS-23],inactive
10,NC(=O)[C@@H]1CCCN1C(c1ccc(F)cc1)c1ccc(F)cc1 [CNS-24],inactive

# Same assay, conditions: SAR study, 8 concentrations (30-0.01 μM), SY5Y-BACEGFP-SEAPAPPwt cells; read-out: IC50(sAPPβ)
row,Compound,pIC50
1,O=C(CCc1ccccc1)NC[C@@H]1CCCCN1CCOC(c1ccc(F)cc1)c1ccc(F)cc1 [CNS-14],4.85
2,NC[C@@H]1CCCN1CCOC(c1ccc(F)cc1)c1ccc(F)cc1 [CNS-6],4.55
3,Fc1ccc(C(OCCN2CCC[C@H]2CNCCCc2ccccc2)c2ccc(F)cc2)cc1 [CNS-1],4.98
4,O=C(CCc1ccccc1)NC[C@@H]1CCCN1C(c1ccc(F)cc1)c1ccc(F)cc1 [CNS-26],4.49
5,NC[C@H]1CCCN1CCOC(c1ccc(F)cc1)c1ccc(F)cc1 [CNS-10],4.42
6,O=C(CCc1ccccc1)NC[C@H]1CCCN1CCOC(c1ccc(F)cc1)c1ccc(F)cc1 [CNS-9],4.69
7,Fc1ccc(C(OCCN2CCCC[C@H]2CNCCCc2ccccc2)c2ccc(F)cc2)cc1 [CNS-13],5.05
8,"Fc1ccc(C(OCCN2CCN(CCCc3ccccc3)CC2)c2ccc(F)cc2)cc1 [GBR 12909, reference compound]",4.46
9,Fc1ccc(C(OCCN2CCC[C@@H]2CNCCCc2ccccc2)c2ccc(F)cc2)cc1 [CNS-8],5.24
10,COC(=O)NC[C@@H]1CCCN1CCOC(c1ccc(F)cc1)c1ccc(F)cc1 [CNS-4],4.63
11,Fc1ccc(C(c2ccc(F)cc2)N2CCC[C@H]2CNCCCc2ccccc2)cc1 [CNS-27],4.99
12,CC(=O)NC[C@@H]1CCCN1CCOC(c1ccc(F)cc1)c1ccc(F)cc1 [CNS-5],4.68
13,NC[C@@H]1CCCN1C(c1ccc(F)cc1)c1ccc(F)cc1 [CNS-25],4.50
14,NC[C@@H]1CCCCN1CCOC(c1ccc(F)cc1)c1ccc(F)cc1 [CNS-12],< 4.30
15,NC[C@@H]1CCN1CCOC(c1ccc(F)cc1)c1ccc(F)cc1 [CNS-18],< 4.30
16,CNC[C@@H]1CCCN1CCOC(c1ccc(F)cc1)c1ccc(F)cc1 [CNS-3],4.94

# Reference: patent US20110071124A1, “Compounds that Inhibit Production of sAPPB and AB and Uses Thereof” (The Trustees of Columbia University in the City of New York, priority 2008, published 2011)
